The record followed here is patent US8076329B2, “Histamine H3-receptor ligands and their therapeutic applications” (Bioprojet, priority 2005, dated 2011).

Several values for one entry are separate records, joined by “and”; a condition that tells them apart may be missing. Equal values may be shown once. Read-outs that look alike come from different tables or passages of the source.

The target in series [1] is CYP2D6 (Homo sapiens, UniProt P10635). The series is described as follows: Cytochrome inhibition, fluorometric microtiter plate assay. It is filed as in vitro ADME. To be noted: human recombinant CYP2D6, substrate AMMC, compounds of the invention. Here is the method: (§1) The ability of drug in human to inhibit the catalytic activity of cytochrome P-450 isoforms was assayed using microtiter plate-based, fluorometric assays for the activities of the five human major CYP forms. Inhibition potential was determined in vitro after incubation of fluorescent model substrates over various incubation time with human recombinant cytochrome isoforms in the absence or in presence of increasing concentrations of test molecules (from 1 nM to 100 μM), in comparison with specific CYP isoform inhibitors.
(§2) Incubation of drug was carried out at 37° C.±0.5° C. under agitation in the presence of human recombinant cytochrome P-450 isoforms and a NADPH generating system. The incubation conditions for each cytochrome isoform were as follows: […]

For series [2], the target named is CYP3A4 (Homo sapiens, UniProt P08684). The series is described as above. It is filed as in vitro ADME. To be noted: human recombinant CYP3A4, substrate BFC, compounds of the invention. Here is the method: as §1, §2
Setting [3] is: read-out: CYP2D6 cytochrome inhibition (IC50, concentrations in μM for 50% inhibition).
[4] abbreviates: read-out: CYP3A4 cytochrome inhibition (IC50, concentrations in μM for 50% inhibition).
The mark [5] stands for this setting: CYP2D6 cytochrome inhibition (IC50, concentrations in μM for 50% inhibition).
Where [6] appears, read: CYP3A4 cytochrome inhibition (IC50, concentrations in μM for 50% inhibition).

Chain of CYP2D6 (P10635 whole entry, canonical isoform): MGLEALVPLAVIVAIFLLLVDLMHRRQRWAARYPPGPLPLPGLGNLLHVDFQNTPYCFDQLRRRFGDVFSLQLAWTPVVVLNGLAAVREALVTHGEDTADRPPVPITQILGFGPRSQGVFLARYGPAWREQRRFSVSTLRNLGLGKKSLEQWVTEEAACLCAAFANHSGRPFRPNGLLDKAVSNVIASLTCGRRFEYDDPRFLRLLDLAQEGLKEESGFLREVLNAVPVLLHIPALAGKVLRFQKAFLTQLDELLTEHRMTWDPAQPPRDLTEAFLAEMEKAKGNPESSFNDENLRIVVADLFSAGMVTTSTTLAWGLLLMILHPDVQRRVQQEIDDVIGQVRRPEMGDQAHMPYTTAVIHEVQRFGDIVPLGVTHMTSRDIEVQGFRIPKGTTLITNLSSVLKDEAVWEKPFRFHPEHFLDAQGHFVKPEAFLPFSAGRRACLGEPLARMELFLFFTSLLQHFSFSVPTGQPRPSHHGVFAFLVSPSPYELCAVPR
Chain of CYP3A4 (P08684 whole entry): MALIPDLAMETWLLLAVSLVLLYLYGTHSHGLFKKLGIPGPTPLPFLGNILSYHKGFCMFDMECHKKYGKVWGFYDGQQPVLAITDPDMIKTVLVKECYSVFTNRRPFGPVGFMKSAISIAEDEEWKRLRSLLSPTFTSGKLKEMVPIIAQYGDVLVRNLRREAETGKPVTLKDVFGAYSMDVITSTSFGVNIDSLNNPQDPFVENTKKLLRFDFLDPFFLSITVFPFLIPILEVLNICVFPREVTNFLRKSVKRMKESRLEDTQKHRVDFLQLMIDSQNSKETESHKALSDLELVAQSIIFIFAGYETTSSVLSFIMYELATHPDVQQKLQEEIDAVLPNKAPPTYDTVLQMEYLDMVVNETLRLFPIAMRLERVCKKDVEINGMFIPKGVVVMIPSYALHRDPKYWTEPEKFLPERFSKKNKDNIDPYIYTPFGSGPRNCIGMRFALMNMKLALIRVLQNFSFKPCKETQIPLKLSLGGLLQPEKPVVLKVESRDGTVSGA

Regarding “1-{3-[4-(cis-4-dimethylaminocyclohex-1-yl)phenoxy]propyl}piperidine, dioxalate and 1-{3-[4-(trans-4-dimethylaminocyclohex-1-yl)phenoxy]propyl}-piperidine, dioxalate [Example 18]”, the IC50 is more than 10 µM in series [1] (setting [3]); 43 µM and 50 µM in series [2] (setting [4]).

Consider “1-{3-[4-(cis-4-morpholinocyclohex-1-yl)phenoxy]propyl}piperidine, dihydrochloride and 1-{3-[4-(trans-4-morpholinocyclohex-1-yl)phenoxy]-propyl}piperidine, dihydro-chloride [Example 40]”, for which the IC50 in series [1] (setting [3]) was more than 100 µM; in series [2] (setting [4]), 66 µM.

In the case of `CC1CCCN(CCCOc2ccc(C(C)(C)O)cc2)C1` (racemic) [Example 6, (RS)-1-{3-[4-(1-hydroxy-1-methylethyl)phenoxy]propyl}-3-methylpiperidine], the IC50 in series [1] (setting [5]) and in series [2] (setting [6]) was more than 10 µM throughout.

Turning to `CC1CCCN(CCCOc2ccc(-c3ccccc3)cc2)C1` (racemic) [Example 26, (RS)-1-{3-[(biphenyl-4-yl)oxy]propyl}-3-methylpiperidine], the IC50 in series [1] (setting [5]) turned out to be 14 µM; in series [2] (setting [6]) it was 8 µM.

For the compound `C[C@H]1C[C@H](C)CN(CCCOc2ccc(C(=O)N3CCCC3)cc2)C1` (relative stereo) [Example 2, trans-1-{3-[4-(N,N-tetramethylenecarbamoyl)phenoxy]propyl}-3,5-dimethylpiperidine], the IC50 in series [1] (setting [5]) and in series [2] (setting [6]) was more than 10 µM each time.

For `C[C@@H]1C[C@@H](C)CN(CCCOc2ccc(C(C)(C)O)cc2)C1` (relative stereo) [Example 5, trans-1-{3-[4-(1-hydroxy-1-methylethyl)phenoxy]propyl}-3,5-dimethylpiperidine], the IC50 was more than 10 µM in series [1] (setting [5]) and 67 µM in series [2] (setting [6]).

As for `C=C(C)c1ccc(OCCCN2C[C@@H](C)C[C@H](C)C2)cc1` (relative stereo) [Example 10, trans-1-{3-(4-isopropenylphenoxy)propyl]-3,5-dimethylpiperidine], the IC50 in series [1] (setting [5]) was found to be 47 µM; in series [2] (setting [6]), 30 µM.

For the compound `C[C@@H]1C[C@@H](C)CN(CCCOc2ccc(Oc3ccccc3)cc2)C1` (relative stereo) [Example 14, trans-1-{3-[4-(phenoxy)phenoxy]propyl}-3,5-dimethylpiperidine], the IC50 in series [1] (setting [5]) and in series [2] (setting [6]) was more than 10 µM each time.

As for `C[C@@H]1C[C@@H](C)CN(CCCOc2ccc(C3=NCCCC3)cc2)C1` (relative stereo) [Example 16, trans-6-{4-[3-(3,5-dimethylpiperidino)propoxy]phenyl}-2,3,4,5-tetrahydropyridine], the values for the IC50 in series [1] (setting [5]) and in series [2] (setting [6]) were more than 100 µM and 22 µM, respectively.

Consider `C[C@@H]1C[C@@H](C)CN(CCCOc2ccc([C@H]3CC[C@@H](N(C)C)CC3)cc2)C1` (relative stereo) [Example 20, trans-1-{3-[4-(cis-4-dimethylaminocyclohex-1-yl)phenoxy]propyl}-3,5-dimethylpiperidine, dioxalate and trans-1-{3-[4-(trans-4-dimethylaminocyclohex-1-yl)-phenoxy]propyl}-3,5-dimethylpiperidine, dioxalate], for which the IC50 is more than 10 µM in series [1] (setting [5]); 38 µM and 35 µM in series [2] (setting [6]).

In the case of `C[C@@H]1C[C@@H](C)CN(CCCOc2ccc(-c3ccccc3)cc2)C1` (relative stereo) [Example 22, trans-1-{3-[(biphenyl-4-yl)oxy]propyl}-3,5-dimethylpiperidine], the IC50 in series [1] (setting [5]) was determined as 13 µM; in series [2] (setting [6]) it was 3 µM.

`Cc1ccc(-c2ccc(OCCCN3C[C@@H](C)C[C@H](C)C3)cc2)cc1` (relative stereo) [Example 27, trans-3,5-dimethyl-1-{3-[(4′-methylbiphenyl-4-yl)oxy]propyl}piperidine]: the results for the IC50 in series [1] (setting [5]) and in series [2] (setting [6]) were more than 10 µM and more than 1 µM, respectively.

On to `C[C@@H]1C[C@@H](C)CN(CCCOc2ccc(-c3ccncc3)cc2)C1` (relative stereo) [Example 31, trans-3,5-dimethyl-1-{3-[4-(4-pyridyl)phenoxy]propyl}piperidine], for which the IC50 in series [1] (setting [5]) and in series [2] (setting [6]) was 4 µM each time.

In the case of `C[C@H]1C[C@H](C)CN(CCCOc2ccc(-n3cccc3)cc2)C1` (relative stereo) [Example 33, trans-3,5-dimethyl-1-{3-[4-(pyrrol-1-yl)phenoxy]propyl}piperidine], the IC50 amounted to 3 µM in series [1] (setting [5]) and 7 µM in series [2] (setting [6]).

As for `C[C@@H]1C[C@@H](C)CN(CCCOc2ccc(-c3cc[nH]n3)cc2)C1` (relative stereo) [Example 34, trans-3,5-dimethyl-1-{3-[4-(pyrazol-3-yl)phenoxy]propyl}piperidine], the IC50 in series [1] (setting [5]) was determined as 20 µM; in series [2] (human, recombinant human CYP3A4, probe BFC, CYP3A4 cytochrome inhibition (IC50, concentrations in μM for 50% inhibition)) it was 10 µM.

Regarding `N#CCc1ccc(OCCCN2CCCCC2)cc1` [Example 4], the IC50 in series [1] (setting [5]) and in series [2] (setting [6]) was more than 10 µM throughout.

Regarding `C=CCC(O)(CC=C)c1ccc(OCCCN2CCCCC2)cc1` [Example 9, 1-{3-[4-(1-hydroxy-1-allylbut-3-enyl)phenoxy]propyl}piperidine], the figures for the IC50 in series [1] (setting [5]) and in series [2] (setting [6]) were 8 µM and 3 µM, respectively.

With `C(=C\c1ccc(OCCCN2CCCCC2)cc1)/c1ccccc1` [Example 11, trans-1-{3-(4-styrylphenoxy)propyl]piperidine], the IC50 in series [1] (setting [5]) was determined as 5 µM; in series [2] (setting [6]), 20 µM.

For the compound `C[C@H]1C[C@H](C)CN(CCCOc2ccc([C@H]3CC[C@H](N(C)C)CC3)cc2)C1` [Example 12, (3S,5S)-1-{3-[4-(trans-4-dimethylaminocyclohex-1-yl)phenoxy]propyl}-3,5-dimethylpiperidine], the IC50 is more than 10 µM in series [1] (setting [5]) and 28 µM in series [2] (setting [6]).

As for `c1ccc(COc2ccc(OCCCN3CCCCC3)cc2)cc1` [Example 13, 1-{3-[4-(benzyloxy)phenoxy]propyl}piperidine], the IC50 in series [1] (setting [5]) worked out at 23 µM; in series [2] (setting [6]), 16 µM.

As for `c1cc([C@H]2CC[C@H](N3CCCC3)CC2)ccc1OCCCN1CCCCC1` [Example 19, 1-{3-[4-(cis-4-tetramethylenaminocyclohex-1-yl)phenoxy]propyl}piperidine, dioxalate and 1-{3-[4-(trans-4-tetramethylenaminocyclohex-1-yl)phenoxy]propyl}-piperidine, dioxalate], the IC50 was more than 10 µM in series [1] (setting [5]); 42 µM and 48 µM in series [2] (setting [6]).

As to `c1ccc(-c2ccc(OCCCN3CCCC3)cc2)cc1` [Example 21, 1-{3-[(biphenyl-4-yl)oxy]propyl}pyrrolidine], the IC50 in series [1] (setting [5]) and in series [2] (setting [6]) was more than 10 µM each time.

In the case of `C[C@H]1C[C@H](C)CN(CCCOc2ccc(-c3ccccc3)cc2)C1` [Example 23, (3S,5S)-1-{3-[(biphenyl-4-yl)oxy]propyl}-3,5-dimethylpiperidine], the IC50 in series [1] (setting [5]) was 13 µM; in series [2] (setting [6]), 3 µM.

As for `COc1ccc(-c2ccc(OCCCN3CCCCC3)cc2)cc1` [Example 25, 1-{3-[(4′-methoxybiphenyl-4-yl)oxy]propyl}piperidine], the IC50 in series [1] (setting [5]) and in series [2] (setting [6]) was more than 10 µM in each case.

Take `c1cc(-c2ccc(OCCCN3CCCCC3)cc2)ccn1` [Example 30]: the IC50 in series [1] (setting [5]) was 7 µM; in series [2] (setting [6]) it was 11 µM.

Consider `c1cc(-c2ccc(OCCCN3CCOCC3)cc2)ccc1OCCCN1CCCCC1` [Example 36, 4-(3-{[4′-(3-piperidinopropoxy)biphenyl-4-yl]oxy}propyl)morpholine], for which the IC50 is more than 10 µM in series [1] (setting [5]) and 3 µM in series [2] (setting [6]).

As to `c1cc(-c2ccc(OCCCN3CCCC3)cc2)ccc1OCCCN1CCCC1` [Example 38, di-1,1′-{(biphenyl-4,4′-diyl)bis[oxy(propan-1,3-diyl)]}pyrrolidine], the IC50 is more than 10 µM in series [1] (setting [5]) and 30 µM in series [2] (setting [6]).

In the case of `C[C@H]1CCCN(CCCOc2ccc(-c3ccncc3)cc2)C1` [Example 39, (3S)-3-methyl-1-{3-[4-(4-pyridyl)phenoxy]propyl}piperidine], the IC50 in series [1] (setting [5]) came out at 6 µM; in series [2] (setting [6]) it was 11 µM.

Turning to `C(=C\c1ccc(-c2ccc(OCCCN3CCCCC3)cc2)cc1)/CN1CCCCC1` [Example 44, (E)-1-(3-{[4′-(3-piperidinoprop-1-en-1-yl)biphenyl-4-yl]oxy}propyl)piperidine], the IC50 in series [1] (setting [5]) was more than 10 µM; in series [2] (setting [6]) it was more than 1 µM.

As to `C(=C/c1ccc(-c2ccc(OCCCN3CCCCC3)cc2)cc1)/CN1CCCCC1` [Example 45, (Z)-1-(3-{[4′-(3-piperidinoprop-1-en-1-yl)biphenyl-4-yl]oxy}propyl)piperidine], the values for the IC50 in series [1] (setting [5]) and in series [2] (setting [6]) were 79 µM and 5 µM, respectively.

In the case of `CN1CCN(c2ccc(-c3ccc(OCCCN4CCCCC4)cc3)cc2)CC1` [Example 46, 1-methyl-4-[4′-(3-piperidinopropoxy)biphenyl]piperazine], the values for the IC50 in series [1] (setting [5]) and in series [2] (setting [6]) were more than 100 µM and 12 µM, respectively.

For the compound `CN(C)[C@H]1CC[C@@H](Cc2ccc(OCCCN3CCCCC3)cc2)CC1` [Example 47, 1-{3-[4-(cis-4-dimethylaminocyclohex-1-yl)methylphenoxy]propyl}piperidine], the IC50 is 107 µM in series [1] (setting [5]) and 37 µM in series [2] (setting [6]).

For `c1cc(-c2ccc(OCCCN3CCCCC3)cc2)ccc1CCCN1CCCCC1` [Example 48], the IC50 in series [1] (setting [5]) and in series [2] (setting [6]) was 2 µM in each case.
